Like-named read-outs stand apart in the source and are kept apart here.
Biological target: T1, mGluR2 receptor (metabotropic glutamate receptor 2) (Homo sapiens, UniProt Q14416)
T1 construct: expressed in transfected cells
Assay: mGluR2 Potentiator Screen, FLIPR, EC10-EC20 glutamate challenge
Format: cell-based
Details: read-out: EC50
Description: Procedure for mGluR2 Potentiator Screen NLB Methods EC10-EC20 Challenge Cell Culture and Plating:
Cells used for this screen are HEK cells stably transfected with the mGluR2 receptor (metabotropic glutamate receptor 2) and the Gα15 G protein. Clones were identified by functional activity (FLIPR). Cells are grown in growth media containing: DMEM High Glucose with Glutamine and Na Pyruvate (GIBCO), 10% (v/v) Heat inactivate FBS (GIBCO) G418 500 ug/ml (from 50 mg/ml stock) (GIBCO) and Blasticidin 3 ug/ml (from 5 mg/ml stock made in H2O) (Invitrogen).
2 days before the assay cell are trypsinized with 0.25% trysin/EDTA (GIBCO), spun down at 1000 rpm for 5 minutes, resuspended in growth media and plated on polystyrene 384 well black wall/clear bottom poly-D-lysine coated plates at a density of approximately 18,000 cells/well in a volume of 50 μL per well. One day before the assay the growth media is removed from the plates by flicking and replaced with media containing DMEM High Glucose without Glutamine and Na Pyruvate (GIBCO) and 10% (v/v) dialyzed FBS (GIBCO). The reason for the removal of glutamine the day before the assay is to minimize the amount of glutamate that will be present during the assay, as endogenous glutarnate released from the cells can reduce the fluorescent response and interfere with the FLIPR screen.
FLIPR Methods and Data Analysis:
On the day of the assay, the FLIPR assay is performed using the following methods:
The pH is adjusted to 7.4 with 1M NaOH. Prepare a 2 mM (approx.) stock solution of Fluo-4.am (Molecular Probes) dye in DMSO −22 μl DMSO per 50 ug vial (440 μL per 1 mg vial). Make a 1 mM (approx.) flou-4, PA working solution per vial by adding 22 μl of 20% pluronic acid (PA) (Molecular Probes) in DMSO to each 50 ug vial (440 μL per 1 mg vial). Prepare a 250 mM Probenecid (Sigma) stock solution by dissolving 0.71 g into 5 ml 1N NaOH and 5 ml assay buffer (for each liter of assay wash buffer). Make 4 uM (approx.) dye incubation media by adding 2.50 ug vials per 11 ml DMEM high glucose without glutamine (220 ml per 1 mg vial). Add 110 μL probenecid stock per 11 ml (2.5 mM final [concentration]). To the dye media add 3 units/ml of glutamic-pyruvic transaminase (GPT, Sigma) and 3 mM Na Pyruvate. The assay has worked with dye concentrations from 2 uM to 8 uM dye as well. To the assay buffer from drug preparation, add 1.83 mls DMSO and 400 μL. 15.8% P104 (from New Leads biology) per liter for final concentrations of 0.18% DMSO and 0.006% P104. To the assay buffer for cell washing, add probenecid in the same manner and concentration that was used for the dye media.
Remove growth media from cell plates by flicking. Add 50 μl/well dye solution. Incubate 1 hour at 37° C. and 5% CO2. Remove dye solution and wash 3 times with assay buffer+probenecid (100 μl probenecid stock per 10 ml buffer), leaving 30 μL/well assay buffer. Wait at least 10-15 minutes. Compounds and agonist challenge additions are performed with the FLIPR. The in addition is for test compounds, which are added as 15 μL of 4× [concentration] of potentiator. The second 2nd addition is 15 μL of 4× [concentration] of agonist or challenge. This achieves 1× concentration of all compounds only after 2nd addition. The 1st and 2nd additions are performed separately using the FLIPR, which give 2 different data files. Compounds are pretreated at least 30 minutes before agonist addition.
Results are analyzed by dividing the peak fluorescent value of the FLIPR response by the […] to achieve a ratio response. The ratios are then analyzed by curve fitting programs. Since potent compounds can give an inverted U dose response curve (due to effects on endogenous glutamate by the potentiators) points are deleted at concentrations higher than the concentration that gives the maximum effect. Maximum values for dose response curves (forced fitting) are derived from standards on the plate.
Compound Preparation and Glutamate Challenge: […]

T1 sequence (Q14416 19-872, species assumed): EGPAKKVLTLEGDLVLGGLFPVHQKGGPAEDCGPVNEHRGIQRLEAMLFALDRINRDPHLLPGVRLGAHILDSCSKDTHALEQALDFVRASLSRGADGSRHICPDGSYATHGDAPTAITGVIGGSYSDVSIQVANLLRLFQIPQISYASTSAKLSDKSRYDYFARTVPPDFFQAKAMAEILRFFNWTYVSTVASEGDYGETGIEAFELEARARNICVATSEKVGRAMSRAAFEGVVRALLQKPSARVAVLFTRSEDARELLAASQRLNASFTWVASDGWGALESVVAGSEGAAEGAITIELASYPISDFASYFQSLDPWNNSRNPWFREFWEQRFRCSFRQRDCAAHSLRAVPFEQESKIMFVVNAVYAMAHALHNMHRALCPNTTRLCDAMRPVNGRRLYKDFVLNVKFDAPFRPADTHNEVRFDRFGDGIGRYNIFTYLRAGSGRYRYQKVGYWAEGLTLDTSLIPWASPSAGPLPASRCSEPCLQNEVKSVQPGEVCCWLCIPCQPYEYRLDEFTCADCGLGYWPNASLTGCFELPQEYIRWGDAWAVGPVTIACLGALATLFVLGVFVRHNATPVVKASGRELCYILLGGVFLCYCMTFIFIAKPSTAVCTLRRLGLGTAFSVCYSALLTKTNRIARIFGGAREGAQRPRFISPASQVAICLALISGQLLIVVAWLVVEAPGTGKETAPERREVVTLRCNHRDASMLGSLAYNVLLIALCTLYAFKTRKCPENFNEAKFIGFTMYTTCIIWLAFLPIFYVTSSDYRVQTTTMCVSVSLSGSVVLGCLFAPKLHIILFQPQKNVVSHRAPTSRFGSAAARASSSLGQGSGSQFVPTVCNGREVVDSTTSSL

SMILES	EC50	EC50 (listed as 1)
Cn1c(CN2CCC(c3ccccc3F)CC2)nc2cc(C(C)(C)O)ccc21 [Entry 298, 2-(2-((4-(2-fluorophenyl)piperidin-1-yl)methyl)-1-methyl-1H-benzo[d]imidazol-5-yl)propan-2-ol]	> 7340 nM	
Cn1c(CN2CCC(c3ccccc3F)CC2)nc2c(F)cccc21 [Entry 325, 4-Fluoro-2-((4-(2-Fluorophenyl)piperidin-1-yl)methyl)-1-methyl-1H-benzo[d]imidazole]	33.8 nM	
COc1cc(C(F)(F)F)ccc1C1CCN(Cc2nc3ccccc3n2C)CC1 [Entry 354]	< 19.3 nM	> 6170 nM
Cn1c(CN2CCC(c3ccccc3F)CC2)nc2cc(C(N)=O)ccc21 [Entry 363, 2-((4-(2-Fluorophenyl)piperidin-1-yl)methyl)-1-methyl-1H-benzo[d]imidazol-5-carboxamide]	2020 nM	
CC(C)C(=O)N1CC2(CCN(Cc3nc4ccccc4n3C)CC2)c2cc(F)ccc21 [compound 17]	3310 nM	
Cc1nnsc1C(=O)N1CC2(CCN(Cc3nc4ccccc4n3C)CC2)c2cc(F)ccc21 [compound 18]	2450 nM	
CC(=O)N1CC2(CCN(Cc3nc4ccccc4n3C)CC2)c2cc(F)ccc21 [compound 19]	4790 nM	
CCC(=O)N1CC2(CCN(Cc3nc4ccccc4n3C)CC2)c2cc(F)ccc21 [compound 20]	3390 nM	
Cc1ccc2c(c1)C1(CCN(Cc3nc4ccccc4n3C)CC1)CN2C(=O)c1snnc1C [compound 21]	1160 nM	
CC(=O)N1CC2(CCN(Cc3nc4ccccc4n3C)CC2)c2cc(C)ccc21 [compound 22]	3830 nM	
CCC(=O)N1CC2(CCN(Cc3nc4ccccc4n3C)CC2)c2cc(C)ccc21 [compound 23]	926 nM	
Cc1ccc2c(c1)C1(CCN(Cc3nc4ccccc4n3C)CC1)CN2C(=O)C(C)C [compound 24]	1620 nM	
Cc1nnsc1C(=O)N1CC2(CCN(Cc3nc4ccccc4n3C)CC2)c2cc(Cl)ccc21 [compound 25]	1350 nM	
CC(=O)N1CC2(CCN(Cc3nc4ccccc4n3C)CC2)c2cc(Cl)ccc21 [compound 26]	2450 nM	
CCC(=O)N1CC2(CCN(Cc3nc4ccccc4n3C)CC2)c2cc(Cl)ccc21 [compound 27]	1060 nM	
Cc1nnsc1C(=O)N1CC2(CCN(Cc3nc4ccccc4n3C)CC2)c2ccccc21 [compound 28]	2110 nM	
Cc1ccc2c(c1)C1(CCN(Cc3nc4ccccc4n3C)CC1)CN2C(=O)c1ccoc1 [compound 29]	2430 nM	
COC(=O)CCCCC(=O)N1CC2(CCN(Cc3nc4ccccc4n3C)CC2)c2cc(C)ccc21 [compound 30]	4890 nM	
Cc1ccc2c(c1)C1(CCN(Cc3nc4ccccc4n3C)CC1)CN2C(=O)c1c(C)noc1C [compound 31]	2040 nM	
COC(=O)CCCC(=O)N1CC2(CCN(Cc3nc4ccccc4n3C)CC2)c2cc(C)ccc21 [compound 32]	1850 nM	
CCOC(=O)CCC(=O)N1CC2(CCN(Cc3nc4ccccc4n3C)CC2)c2cc(C)ccc21 [compound 33]	1350 nM	
COC(=O)CCC(=O)N1CC2(CCN(Cc3nc4ccccc4n3C)CC2)c2cc(C)ccc21 [compound 34]	3150 nM	
Cc1ccc2c(c1)C1(CCN(Cc3nc4ccccc4n3C)CC1)CN2C(=O)c1cccnc1 [compound 35]	3610 nM	
Cc1ccc2c(c1)C1(CCN(Cc3nc4ccccc4n3C)CC1)CN2C(=O)C1CC1 [compound 36]	2330 nM	
Cc1ccc2c(c1)C1(CCN(Cc3nc4ccccc4n3C)CC1)CN2C(=O)c1ccco1 [compound 37]	1820 nM	
CCCC(=O)N1CC2(CCN(Cc3nc4ccccc4n3C)CC2)c2cc(C)ccc21 [compound 38]	388 nM	
Cc1noc(C)c1C(=O)N1CC2(CCN(Cc3nc4ccccc4n3C)CC2)c2cc(Cl)ccc21 [compound 39]	2830 nM	
CCOC(=O)CCC(=O)N1CC2(CCN(Cc3nc4ccccc4n3C)CC2)c2cc(Cl)ccc21 [compound 41]	1630 nM	
COC(=O)CCC(=O)N1CC2(CCN(Cc3nc4ccccc4n3C)CC2)c2cc(Cl)ccc21 [compound 42]	3230 nM	

Source: patent publication US20080280933A1, “BENZIMIDAZOLYL COMPOUNDS” (priority 2006, published 2008)
